Among the test systems are UACC-257 melanoma; HCT-15 colon; SR leukemia; NCI-H460 lung; OVCAR-4 ovarian; SF-295 CNS; TK-10 renal; BT-549 breast; M14 melanoma; NCI-H522 lung.
Common to all, as to assay: NCI tumour cell line growth inhibition, 48 h

We go through eleven molecules from PubChem BioAssay (NCI).

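Grown in 96-well plates, cells were treated for 48 hours with each compound at five concentrations. Insufficient inhibition: endpoint recorded as highest concentration tested. Here, GI50 denotes the concentration required for 50% inhibition of growth. TGI denotes the concentration required for complete inhibition of growth.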

For the molecule `COc1ccc2c(c1)C(=O)c1c-2c(Nc2ccccc2OC)nc2ccccc12`, the GI50 in the assay on UACC-257 melanoma is over 100 µM; in the assay with HCT-15 colon, over 100 µM; with SR leukemia, over 100 µM; in the assay with NCI-H460 lung it was over 100 µM; in the assay with OVCAR-4 ovarian, 50.5 µM; in the assay on SF-295 CNS, over 100 µM. Besides, the GI50 in the assay on TK-10 renal, with BT-549 breast, in the assay on M14 melanoma and in the assay with NCI-H522 lung was over 100 µM each time. Further, the TGI in the assay on UACC-257 melanoma, with HCT-15 colon, in the assay on SR leukemia, in the assay on NCI-H460 lung, in the assay with OVCAR-4 ovarian and in the assay on SF-295 CNS was over 100 µM each time. Also, the TGI in the assay with TK-10 renal, in the assay on BT-549 breast, in the assay with M14 melanoma and with NCI-H522 lung was over 100 µM in each case.

Turning to `Cc1c(C(=N)C(C#N)C#N)c(=N)oc2c1ccc1ccccc12`, the GI50 in the assay with UACC-257 melanoma was 28.6 µM; with HCT-15 colon it was 13.4 µM; in the assay with SR leukemia it was 7.64 µM; in the assay on NCI-H460 lung it was 27.2 µM; in the assay on OVCAR-4 ovarian it was 19.7 µM; in the assay with SF-295 CNS, 33.9 µM. For the same molecule, the GI50 is 30.5 µM in the assay with TK-10 renal, 32.2 µM in the assay with BT-549 breast, 23.9 µM in the assay with M14 melanoma and 8 µM in the assay with NCI-H522 lung. Moreover, the TGI is over 100 µM in the assay with UACC-257 melanoma; 72.5 µM in the assay with HCT-15 colon; over 100 µM in the assay on SR leukemia; over 100 µM in the assay with NCI-H460 lung; over 100 µM in the assay on OVCAR-4 ovarian; over 100 µM in the assay on SF-295 CNS. Besides, the TGI with TK-10 renal was over 100 µM; with BT-549 breast it was over 100 µM; with M14 melanoma, over 100 µM; in the assay with NCI-H522 lung, 25.7 µM.

As for `COc1ccc(C(=O)c2cc(OC)c(OC)c(OC)c2OC)cc1O`, the GI50 with UACC-257 melanoma was 4.75 µM; in the assay with HCT-15 colon, 3.48 µM; in the assay with SR leukemia, 0.61 µM; in the assay with NCI-H460 lung, 3.59 µM; in the assay with OVCAR-4 ovarian, 6.14 µM; in the assay on SF-295 CNS, 1.94 µM. For the same molecule, the GI50 in the assay on TK-10 renal was 52.8 µM; in the assay with BT-549 breast, 5.52 µM; in the assay with M14 melanoma, 3.1 µM; in the assay with NCI-H522 lung, 2.37 µM. Moreover, the TGI in the assay on UACC-257 melanoma is over 100 µM; in the assay with HCT-15 colon it was over 100 µM; with SR leukemia, over 100 µM; in the assay with NCI-H460 lung, over 100 µM; in the assay on OVCAR-4 ovarian, over 100 µM; in the assay on SF-295 CNS, 5.18 µM. Besides, the TGI with TK-10 renal is over 100 µM; with BT-549 breast, over 100 µM; in the assay on M14 melanoma, over 100 µM; in the assay on NCI-H522 lung, 7.44 µM.

For `Cn1nccc1Nc1nccc(-c2ccn([C@H](CO)c3ccc(Cl)c(F)c3)c(=O)c2)n1`, the GI50 with UACC-257 melanoma is 0.158 µM; in the assay with HCT-15 colon, 21.3 µM; with SR leukemia, 25.1 µM; in the assay with NCI-H460 lung, 38.4 µM; in the assay with OVCAR-4 ovarian, 33.5 µM; in the assay on SF-295 CNS it was 76.3 µM. Besides, the GI50 was 24 µM in the assay with TK-10 renal, 19.7 µM with BT-549 breast, 0.0871 µM with M14 melanoma and 13.1 µM with NCI-H522 lung. Also, the TGI in the assay with UACC-257 melanoma, with HCT-15 colon, in the assay with SR leukemia, in the assay on NCI-H460 lung, in the assay on OVCAR-4 ovarian and in the assay with SF-295 CNS was over 100 µM throughout. The TGI is over 100 µM with TK-10 renal, 61 µM with BT-549 breast, over 72.2 µM in the assay on M14 melanoma and over 51.9 µM in the assay with NCI-H522 lung.

`O=C(OCc1ccc2c(Br)cc(Br)c(O)c2n1)c1cc2ccccc2[nH]1`: the GI50 was 1.36 µM in the assay with UACC-257 melanoma; 0.314 µM in the assay on HCT-15 colon; 0.43 µM with SR leukemia; 1.53 µM in the assay on NCI-H460 lung; 0.959 µM in the assay on OVCAR-4 ovarian; 3.32 µM with SF-295 CNS. The GI50 in the assay on TK-10 renal was 1.18 µM; in the assay with BT-549 breast, 0.706 µM; with M14 melanoma, 0.763 µM; with NCI-H522 lung, 0.552 µM. In addition, the TGI in the assay on UACC-257 melanoma is 3.38 µM; in the assay on HCT-15 colon, 1.03 µM; in the assay on SR leukemia, 4.22 µM; with NCI-H460 lung, 3.33 µM; in the assay with OVCAR-4 ovarian, 2.31 µM; in the assay on SF-295 CNS, 7.68 µM. Further, the TGI with TK-10 renal worked out at 2.43 µM; in the assay with BT-549 breast, 2.06 µM; in the assay with M14 melanoma it was 2.15 µM; in the assay with NCI-H522 lung it was 2.19 µM.

For `Cc1ccc2c(-c3ccnc(Nc4ccc5c(c4)OCCO5)n3)c(-c3ccc(C(F)(F)F)cc3)nn2n1`, the GI50 in the assay on UACC-257 melanoma was 4.21 µM; in the assay on HCT-15 colon, 8.69 µM; in the assay on SR leukemia, 17 µM; in the assay with NCI-H460 lung, 5.66 µM; with OVCAR-4 ovarian, 8.59 µM; in the assay on SF-295 CNS, 7.01 µM. Further, the GI50 with TK-10 renal was 8.11 µM; with BT-549 breast, 4.45 µM; with M14 melanoma it was 3.58 µM; in the assay on NCI-H522 lung, 4.57 µM. Also, the TGI with UACC-257 melanoma is 13.2 µM; in the assay with HCT-15 colon, over 25 µM; in the assay with SR leukemia, over 25 µM; in the assay with NCI-H460 lung, over 25 µM; in the assay on OVCAR-4 ovarian it was over 25 µM; with SF-295 CNS, over 25 µM. In addition, the TGI was over 25 µM with TK-10 renal, over 25 µM with BT-549 breast, 9.43 µM in the assay with M14 melanoma and 21.4 µM in the assay on NCI-H522 lung.

For `Cn1c([N+](=O)[O-])cnc1C=C1C(=O)c2ccccc2C1=O`, the GI50 with UACC-257 melanoma is 3.12 µM; in the assay on HCT-15 colon it was 2.13 µM; in the assay on SR leukemia it was 1.87 µM; in the assay with NCI-H460 lung, 7.1 µM; in the assay with OVCAR-4 ovarian, 6.36 µM; with SF-295 CNS, 21.2 µM. The GI50 with TK-10 renal is 7.07 µM; in the assay on BT-549 breast it was 3.86 µM; in the assay with M14 melanoma, 3.83 µM; in the assay with NCI-H522 lung it was 1.89 µM. Moreover, the TGI with UACC-257 melanoma was 14.7 µM; in the assay with HCT-15 colon, 6.77 µM; with SR leukemia it was 10.5 µM; with NCI-H460 lung it was 22 µM; in the assay on OVCAR-4 ovarian it was 55.4 µM; in the assay on SF-295 CNS it was 77.7 µM. Moreover, the TGI is 21.8 µM with TK-10 renal, 12.8 µM in the assay with BT-549 breast, 16.6 µM in the assay on M14 melanoma and 4.37 µM in the assay on NCI-H522 lung.

In the case of `CCNc1nc(O)c(/C=C2\C=Nc3ncccc32)s1`, the GI50 in the assay on UACC-257 melanoma was 4.17 µM; with HCT-15 colon it was 5.18 µM; with SR leukemia it was 1.6 µM; with NCI-H460 lung it was 3.93 µM; with OVCAR-4 ovarian it was 3.08 µM; in the assay with SF-295 CNS, 3.45 µM. Also, the GI50 is 2.78 µM in the assay with TK-10 renal, 1.66 µM in the assay on BT-549 breast, 4.45 µM with M14 melanoma and 1.25 µM with NCI-H522 lung. Also, the TGI with UACC-257 melanoma was 15.5 µM; in the assay on HCT-15 colon, over 100 µM; with SR leukemia it was over 100 µM; in the assay with NCI-H460 lung it was 17.8 µM; in the assay with OVCAR-4 ovarian it was over 100 µM; in the assay with SF-295 CNS, over 100 µM. Also, the TGI in the assay with TK-10 renal was 95 µM; in the assay on BT-549 breast, 5.17 µM; in the assay on M14 melanoma, 26.9 µM; with NCI-H522 lung, 8.83 µM.

For `CCN1C(=S)N(CC)C2C1NC(=S)N2/N=C/C=C/c1ccccc1OC` (centres undefined), the GI50 with UACC-257 melanoma was 21.8 µM; with HCT-15 colon, 0.267 µM; in the assay with SR leukemia, 0.0833 µM; with NCI-H460 lung, 0.335 µM; in the assay with OVCAR-4 ovarian, 1.1 µM; in the assay on SF-295 CNS, 0.113 µM. Besides, the GI50 in the assay on TK-10 renal was 7.69 µM; in the assay with BT-549 breast, 0.899 µM; in the assay with M14 melanoma, 0.179 µM; in the assay with NCI-H522 lung, 0.137 µM. The TGI in the assay with UACC-257 melanoma is over 100 µM; with HCT-15 colon, over 100 µM; in the assay with NCI-H460 lung, over 33.4 µM; in the assay with OVCAR-4 ovarian, over 100 µM; in the assay on SF-295 CNS, 9.18 µM; in the assay on TK-10 renal, 98.9 µM. Besides, the TGI is 8.56 µM in the assay on BT-549 breast, 0.575 µM in the assay on M14 melanoma and 1.19 µM in the assay with NCI-H522 lung.

For `CN(C)CCCC1(c2ccc(F)cc2)OCc2cc(-c3cccc4[nH]ccc34)ccc21` (centres undefined), the GI50 in the assay on UACC-257 melanoma is 1.7 µM; with HCT-15 colon, 1.83 µM; in the assay on SR leukemia it was 0.973 µM; in the assay on NCI-H460 lung, 1.89 µM; in the assay with OVCAR-4 ovarian, 1.97 µM; in the assay on SF-295 CNS, 1.84 µM. Besides, the GI50 in the assay with TK-10 renal was 1.7 µM; with BT-549 breast it was 1.87 µM; in the assay with M14 melanoma, 1.66 µM; in the assay with NCI-H522 lung, 1.59 µM. The TGI came out at 3.18 µM in the assay on UACC-257 melanoma; 3.42 µM in the assay on HCT-15 colon; 2.97 µM in the assay on SR leukemia; 3.63 µM in the assay on NCI-H460 lung; 4.51 µM in the assay on OVCAR-4 ovarian; 3.44 µM in the assay with SF-295 CNS. The TGI in the assay with TK-10 renal was determined as 3.2 µM; in the assay on BT-549 breast, 3.54 µM; in the assay with M14 melanoma it was 3.33 µM; in the assay with NCI-H522 lung, 3.22 µM.

As for `CNC(=O)c1ncccc1Nc1nc(Nc2cc3c(cc2OC)CCCN3C(=O)CN(C)C)nc2[nH]ccc12`, the GI50 in the assay with UACC-257 melanoma was 0.395 µM; with HCT-15 colon it was 1.84 µM; with SR leukemia, 0.104 µM; in the assay with NCI-H460 lung, 0.613 µM; in the assay on OVCAR-4 ovarian, 2.98 µM; in the assay with SF-295 CNS, 1.82 µM. For the same molecule, the GI50 with TK-10 renal is 2.22 µM; with BT-549 breast, 2.7 µM; in the assay with M14 melanoma, 1.87 µM; in the assay on NCI-H522 lung, 0.638 µM. Also, the TGI in the assay on UACC-257 melanoma is 4.71 µM; in the assay on HCT-15 colon it was 9.35 µM; in the assay on SR leukemia it was 2.96 µM; in the assay with NCI-H460 lung, 3.77 µM; with OVCAR-4 ovarian, 6.67 µM; in the assay with SF-295 CNS, 5.94 µM. In addition, the TGI was determined as 6.7 µM in the assay with TK-10 renal, 6.04 µM with BT-549 breast, 5.78 µM in the assay with M14 melanoma and 2.84 µM in the assay on NCI-H522 lung.
